According to US9642831B2, “Substituted chromanes and method of use” (AbbVie S.á.r.l., priority 2014, dated 2017):
pEC50: −log10 of the molar value.

Target: F508delCFTR (Homo sapiens, UniProt P13569, DEL508-508)
Test: Cell Surface Expression-Horse Radish Peroxidase (CSE-HRP) assay
Assay type: cell-based
Parameters: expressed in transfected cells; host or cells: CFBE41o- human lung derived epithelial cell line, doxycycline-inducible
Conditions: CFBE4lo-F508delCFTR-HRP cells; for pEC50: 18-24 hours at 33° C., 8-point curve, highest concentration 20 μM, luminescence readout; for Emax: maximum % activity at any tested concentration, normalized to on-plate positive control (3 μM Example 1)
Description: Cell Surface Expression-Horse Radish Peroxidase (CSE-HRP) Assay:
A cellular assay for measuring the F508delCFTR cell surface expression after correction with test compounds was developed in human lung derived epithelial cell line (CFBE4lo-) (Veit G et al, (2012) Mol Biol Cell. 23(21): 4188-4202). This was achieved by expressing the F508delCFTR mutation along with a horseradish peroxidase (HRP) in the fourth exofacial loop and then measuring the HRP activity using luminescence readout from these cells, CFBE4lo-F508delCFTR-HRP, that were incubated overnight with the test corrector compounds. Briefly, for this primary assay, the CFBE4lo-F508delCFTR-HRP cells were plated in 384-well plates (Greiner Bio-one; Cat 781080) at 4,000 cells/well along with 0.5 μg/mL doxycycline to induce the F508delCFTR-HRP expression and further incubated at 37° C., 5% CO2 for 72 hours. The test compounds were then added at the required concentrations and further incubated for 18-24 hours at 33° C. The highest concentration tested was 20 μM with an 8-point concentration response curve using a 3-fold dilution. Three replicate plates were run to determine one EC50. All plates contained negative controls (dimethyl sulfoxide, DMSO) and positive controls (3 μM of 3-[(2R,4R)-4-({[1-(2,2-difluoro-1,3-benzodioxol-5-yl)cyclopropyl]carbonyl}amino)-7-methoxy-3,4-dihydro-2H-chromen-2-yl]benzoic acid) as well as on-plate concentration response of the positive control. Post incubation, the plates were washed 5× times with Dulbecco's phosphate buffered saline (DPBS), followed by the addition of the HRP substrate, luminol (50 μL), and measuring the HRP activity using luminescence readout on EnVision® Multilabel Plate Reader (Perkin Elmer; product number 2104-0010). The raw counts from the experiment are analyzed using Accelrys® Assay Explorer v3.3.
Z′ greater than 0.5 was used as passing quality control criteria for the plates.
The Z′ is defined as: 1−[3*SDPositive Control+3*SDNegative Control/Absolute(MeanPositive Control−MeanNegative Control)] wherein “SD” is standard deviation.
The % activity measured at each of the 8 test concentrations of the test compound was normalized to the on-plate positive control using the following formula: % activity=[(test compound response−DMSO response)/(positive control response−DMSO response)]*100
The maximum % activity achieved for the test compound at any tested concentration is presented in Table 1 along with the EC50 calculated using the following general sigmoidal curve with variable Hill slope equation (described as Model 42 in the Accelrys® Assay Explorer v3.3 software): y=(a−d)/(1+(x/c)^b)+d
General sigmoidal curve with concentration, response, top, bottom, EC50 and Hill slope.
This model describes a sigmoidal curve with an adjustable baseline, a. The equation can be used to fit curves where response is either increasing or decreasing with respect to the independent variable, “x”.
“x” is a concentration of drug under test.
“a” is the maximum response, and “d” is the minimum response
“c” is the inflection point (EC50) for the curve. That is, “y” is halfway between the lower and upper asymptotes when x=c.
“b” is the slope-factor or Hill coefficient. The sign of b is positive when the response increases with increasing dose and is negative when the response decreases with increasing dose (inhibition).

Chain of F508delCFTR (P13569 with tags, fused parts or gaps DEL508-508): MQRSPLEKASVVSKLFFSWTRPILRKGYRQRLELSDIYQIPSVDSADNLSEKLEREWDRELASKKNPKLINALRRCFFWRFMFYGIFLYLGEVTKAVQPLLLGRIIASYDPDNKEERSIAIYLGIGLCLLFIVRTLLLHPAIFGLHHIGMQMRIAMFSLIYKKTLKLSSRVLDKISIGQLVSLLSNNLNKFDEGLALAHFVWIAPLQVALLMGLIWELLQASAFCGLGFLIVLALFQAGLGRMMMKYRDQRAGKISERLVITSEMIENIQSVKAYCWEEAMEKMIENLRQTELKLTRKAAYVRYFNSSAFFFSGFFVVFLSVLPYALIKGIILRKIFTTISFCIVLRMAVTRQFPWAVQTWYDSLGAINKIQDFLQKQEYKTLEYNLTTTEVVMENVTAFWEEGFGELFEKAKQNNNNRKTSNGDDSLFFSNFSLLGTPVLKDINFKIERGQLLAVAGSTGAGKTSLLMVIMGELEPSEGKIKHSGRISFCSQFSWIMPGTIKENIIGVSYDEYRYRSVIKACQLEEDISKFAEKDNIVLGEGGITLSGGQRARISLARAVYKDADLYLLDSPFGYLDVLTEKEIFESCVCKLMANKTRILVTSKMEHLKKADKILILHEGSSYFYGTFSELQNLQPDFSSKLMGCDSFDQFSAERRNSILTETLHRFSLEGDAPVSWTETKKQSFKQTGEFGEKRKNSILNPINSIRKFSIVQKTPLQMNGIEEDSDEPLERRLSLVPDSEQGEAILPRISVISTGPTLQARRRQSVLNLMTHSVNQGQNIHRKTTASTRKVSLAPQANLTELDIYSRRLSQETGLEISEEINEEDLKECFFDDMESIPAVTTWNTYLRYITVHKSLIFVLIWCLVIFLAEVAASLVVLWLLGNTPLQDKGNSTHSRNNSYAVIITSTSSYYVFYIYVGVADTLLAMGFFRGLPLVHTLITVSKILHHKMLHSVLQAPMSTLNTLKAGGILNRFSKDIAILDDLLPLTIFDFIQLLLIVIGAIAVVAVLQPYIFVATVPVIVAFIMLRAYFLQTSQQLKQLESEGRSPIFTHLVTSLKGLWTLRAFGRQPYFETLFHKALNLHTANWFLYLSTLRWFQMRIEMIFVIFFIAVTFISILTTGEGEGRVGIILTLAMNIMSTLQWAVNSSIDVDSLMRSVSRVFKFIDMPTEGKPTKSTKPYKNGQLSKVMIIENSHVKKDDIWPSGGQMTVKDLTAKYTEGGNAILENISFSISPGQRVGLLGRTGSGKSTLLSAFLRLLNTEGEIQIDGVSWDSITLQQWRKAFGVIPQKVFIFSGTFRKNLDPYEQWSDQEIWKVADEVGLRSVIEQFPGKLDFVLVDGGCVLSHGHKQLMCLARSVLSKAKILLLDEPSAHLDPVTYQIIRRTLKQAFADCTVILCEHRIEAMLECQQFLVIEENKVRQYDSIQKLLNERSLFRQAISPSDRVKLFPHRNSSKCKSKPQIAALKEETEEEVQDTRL

COC(=O)c1cccc([C@H]2C[C@H](NC(=O)C3(c4ccc5c(c4)OC(F)(F)O5)CC3)c3cccnc3O2)c1 (racemic) [Example 34, rac-methyl 3-[(2R,4S)-4-({[1-(2,2-difluoro-1,3-benzodioxol-5-yl)cyclopropyl]carbonyl}amino)-3,4-dihydro-2H-pyrano[2,3-b]pyridin-2-yl]benzoate]
pEC50: ≤ 4.70 | Emax: 15%

COc1ccc2c(c1)O[C@@H](C1CC1)C[C@H]2NC(=O)C1(c2ccc3c(c2)OC(F)(F)O3)CC1 (racemic) [Example 40, rac-N-[(2R,4R)-2-cyclopropyl-7-methoxy-3,4-dihydro-2H-chromen-4-yl]-1-(2,2-difluoro-1,3-benzodioxol-5-yl)cyclopropanecarboxamide]
pEC50: 5.57 | Emax: 107%

COc1ccc2c(c1)O[C@@H](C1CC1)C[C@@H]2NC(=O)C1(c2ccc3c(c2)OC(F)(F)O3)CC1 (racemic) [Example 41, rac-N-[(2R,4S)-2-cyclopropyl-7-methoxy-3,4-dihydro-2H-chromen-4-yl]-1-(2,2-difluoro-3-benzodioxol-5-yl)cyclopropanecarboxamide]
pEC50: 5.59 | Emax: 73%

COc1ccc2c(c1)O[C@@H](c1cccnc1)C[C@H]2NC(=O)C1(c2ccc3c(c2)OC(F)(F)O3)CC1 (racemic) [Example 57, rac-1-(2,2-difluoro-1,3-benzodioxol-5-yl)-N-[(2R,4R)-7-methoxy-2-(pyridin-3-yl)-3,4-dihydro-2H-chromen-4-yl]cyclopropanecarboxamide]
pEC50: 5.77 | Emax: 112%

COC(=O)c1cccc([C@H]2C[C@@H](NC(=O)C3(c4ccc5c(c4)OC(F)(F)O5)CC3)c3ccc(Cl)nc3O2)c1 (racemic) [Example 112, methyl rac-3-[(2R,4R)-7-chloro-4-({[1-(2,2-difluoro-1,3-benzodioxol-5-yl)cyclopropyl]carbonyl}amino)-3,4-dihydro-2H-pyrano[2,3-b]pyridin-2-yl]benzoate]
pEC50: ≤ 4.70 | Emax: 5%

COC(=O)c1cccc([C@H]2C[C@@H](NC(=O)C3(c4ccc5c(c4)OC(F)(F)O5)CC3)c3ccc(F)nc3O2)c1 (racemic) [Example 113, methyl rac-3-[(2R,4R)-4-({[1-(2,2-difluoro-1,3-benzodioxol-5-yl)cyclopropyl]carbonyl}amino)-7-fluoro-3,4-dihydro-2H-pyrano[2,3-b]pyridin-2-yl]benzoate]
pEC50: 5.45 | Emax: 49%

O=C(O)c1cccc([C@H]2C[C@@H](NC(=O)C3(c4ccc5c(c4)OC(F)(F)O5)CC3)c3ccc(Cl)nc3O2)c1 (racemic) [Example 114, rac-3-[(2R,4R)-7-chloro-4-({[1-(2,2-difluoro-1,3-benzodioxol-5-yl)cyclopropyl]carbonyl}amino)-3,4-dihydro-2H-pyrano[2,3-b]pyridin-2-yl]benzoic acid]
pEC50: 5.32 | Emax: 61%

COC(=O)c1cccc([C@H]2C[C@H](NC(=O)C3(c4ccc5c(c4)OC(F)(F)O5)CC3)c3ccc(F)nc3O2)c1 (racemic) [Example 118, methyl rac-3-[(2R,4S)-4-({[1-(2,2-difluoro-1,3-benzodioxol-5-yl)cyclopropyl]carbonyl}amino)-7-fluoro-3,4-dihydro-2H-pyrano[2,3-b]pyridin-2-yl]benzoate]
pEC50: 5.09 | Emax: 25%

CCOC(=O)[C@H]1C[C@H](NC(=O)C2(c3ccc4c(c3)OC(F)(F)O4)CC2)c2ccc(OC)cc2O1 (racemic) [Example 130, Ethyl rac-(2R,4S)-4-({[1-(2,2-difluoro-1,3-benzodioxol-5-yl)cyclopropyl]carbonyl}amino)-7-methoxy-3,4-dihydro-2H-chromene-2-carboxylate]
pEC50: 5.59 | Emax: 79%

COC(=O)[C@H]1C[C@H](NC(=O)C2(c3ccc4c(c3)OC(F)(F)O4)CC2)c2ccc(OC)cc2O1 (racemic) [Example 131, methyl rac-(2R,4S)-4-({[1-(2,2-difluoro-1,3-benzodioxol-5-yl)cyclopropyl]carbonyl}amino)-7-methoxy-3,4-dihydro-2H-chromene-2-carboxylate]
pEC50: 5.44 | Emax: 70%

COc1ccc2c(c1)O[C@@H](C(=O)O)C[C@@H]2NC(=O)C1(c2ccc3c(c2)OC(F)(F)O3)CC1 (racemic) [Example 134, rac-(2R,4S)-4-({[1-(2,2-difluoro-1,3-benzodioxol-5-yl)cyclopropyl]carbonyl}amino)-7-methoxy-3,4-dihydro-2H-chromene-2-carboxylic acid]
pEC50: < 4.70 | Emax: 4%

COC(=O)C12CC([C@H]3C[C@@H](NC(=O)C4(c5ccc6c(c5)OC(F)(F)O6)CC4)c4ccc(OC)cc4O3)(C1)C2 (racemic) [Example 147, methyl rac-3-[(2R,4R)-4-({[1-(2,2-difluoro-1,3-benzodioxol-5-yl)cyclopropyl]carbonyl}amino)-7-methoxy-3,4-dihydro-2H-chromen-2-yl]bicyclo[1.1.1]pentane-1-carboxylate]
pEC50: 5.69 | Emax: 78%

CCOC(=O)c1ccc([C@H]2C[C@H](NC(=O)C3(c4ccc5c(c4)OC(F)(F)O5)CC3)c3ccccc3O2)nc1 (racemic) [Example 149, ethyl rac-6-[(2R,4S)-4-({[1-(2,2-difluoro-1,3-benzodioxol-5-yl)cyclopropyl]carbonyl}amino)-3,4-dihydro-2H-chromen-2-yl]pyridine-3-carboxylate]
pEC50: 5.82 | Emax: 85%

CCOC(=O)c1ccc([C@H]2C[C@@H](NC(=O)C3(c4ccc5c(c4)OC(F)(F)O5)CC3)c3ccccc3O2)nc1 (racemic) [Example 150, ethyl rac-6-[(2R,4R)-4-({[1-(2,2-difluoro-1,3-benzodioxol-5-yl)cyclopropyl]carbonyl}amino)-3,4-dihydro-2H-chromen-2-yl]pyridine-3-carboxylate]
pEC50: 6.38 | Emax: 106%

O=C(O)c1ccc([C@H]2C[C@H](NC(=O)C3(c4ccc5c(c4)OC(F)(F)O5)CC3)c3ccccc3O2)nc1 (racemic) [Example 153, rac-6-[(2R,4S)-4-({[1-(2,2-difluoro-1,3-benzodioxol-5-yl)cyclopropyl]carbonyl}amino)-3,4-dihydro-2H-chromen-2-yl]pyridine-3-carboxylic acid]
pEC50: 5.72 | Emax: 84%

O=C(O)c1ccc([C@H]2C[C@@H](NC(=O)C3(c4ccc5c(c4)OC(F)(F)O5)CC3)c3ccccc3O2)nc1 (racemic) [Example 154, rac-6-[(2R,4R)-4-({[1-(2,2-difluoro-1,3-benzodioxol-5-yl)cyclopropyl]carbonyl}amino)-3,4-dihydro-2H-chromen-2-yl]pyridine-3-carboxylic acid]
pEC50: 6.17 | Emax: 106%

CCOC(=O)[C@H]1C[C@@H](NC(=O)C2(c3ccc4c(c3)OC(F)(F)O4)CC2)c2ccc(OC)cc2O1 (racemic) [Example 163, ethyl rac-(2R,4R)-4-({[1-(2,2-difluoro-1,3-benzodioxol-5-yl)cyclopropyl]carbonyl}amino)-7-methoxy-3,4-dihydro-2H-chromene-2-carboxylate]
pEC50: 5.44 | Emax: 42%

COc1ccc2c(c1)O[C@@H](C(=O)O)C[C@H]2NC(=O)C1(c2ccc3c(c2)OC(F)(F)O3)CC1 (racemic) [Example 164, rac-(2R,4R)-4-({[1-(2,2-difluoro-1,3-benzodioxol-5-yl)cyclopropyl]carbonyl}amino)-7-methoxy-3,4-dihydro-2H-chromene-2-carboxylic acid]
pEC50: < 4.70 | Emax: 2%

CCCN(CCO)C(=O)[C@H]1C[C@@H](NC(=O)C2(c3ccc4c(c3)OC(F)(F)O4)CC2)c2ccc(OC)cc2O1 (racemic) [Example 166, rac-(2R,4R)-4-({[1-(2,2-difluoro-1,3-benzodioxol-5-yl)cyclopropyl]carbonyl}amino)-N-(2-hydroxyethyl)-7-methoxy-N-propyl-3,4-dihydro-2H-chromene-2-carboxamide]
pEC50: 5.70 | Emax: 65%
